O=C(O)/C=C/c1ccc(O)cc1
solubility (mole fraction)
Details	in acetone	in ethanol	in ethyl acetate	in isobutanol	in isopropanol	in methanol	in methyl acetate	in n-butanol	in n-propanol
293.15 K	0.0383	0.0409	0.0113	0.0193	0.0294	0.036	0.0146	0.0323	0.0334
298.15 K	0.0428	0.0456	0.0128	0.0226	0.0331	0.0395	0.0176	0.0371	0.0373
303.15 K	0.0468	0.0507	0.0144	0.0256	0.0373	0.0438	0.0205	0.0432	0.0429
308.15 K	0.0516	0.0552	0.0162	0.0295	0.0417	0.0484	0.0244	0.0503	0.0478
313.15 K	0.0574	0.0614	0.0183	0.0332	0.0462	0.053	0.0292	0.0582	0.0525
318.15 K	0.0619	0.0666	0.0205	0.0371	0.0511	0.0573	0.034	0.0647	0.0588
323.15 K	0.0685	0.0725	0.0229	0.0425	0.0562	0.063	0.0394	0.0731	0.0652
328.15 K	0.0756	0.0785	0.0256	0.0483	0.0617	0.0693	0.0457	0.0823	0.0714
333.15 K	0.0825	0.0861	0.0286	0.0535	0.067	0.0757	0.0519	0.0924	0.0791

— BigSolDB 2.1
